pIC50: −log10 of the molar value. Read-outs that look alike come from different tables or passages of the source.
Columns and labels:
[1] = test system: MDAMB231 breast cancer cell line; assay: In vitro antiproliferative assay (MTT assay), MDAMB231; assay type: cell-based; conditions: 48 hrs drug incubation, hydrochloride, read-out: IC50 in micromolar, MDAMB231 (MTT assay)
Method in brief: (§1)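 Viability is derived from MTT reduction by cells treated for 48 h with test compounds diluted from a 0.1M DMSO stock. A 4 h incubation with 0.5 mg/ml MTT follows, with formazan taken up in DMSO.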

[2] = test system: PC3 spheres (cancer stem cells); conditions: human, 216 h
Source text: (§3) In Vitro Sphere-forming Assay: Sphere assay measures the ability of cancer stem cells (CSCs) to form spheres in specially designed serum-free medium.
(§4) Materials and Reagents:50×B27 Supplement (Life Technologies, Invitrogen, Catlog No.: 17502-044), Fibroblast Growth Factor (FGF) (Sigma-Aldrich, Catlog No.: F029125), Epidermal Growth Factor (EGF) (Sigma-Aldrich, Catlog No.: E9644), Insulin (Sigma, Catlog No.: 19278), Dulbecco's Modified Eagle Medium/F12 (HiMedia Catlog No.: AL139-6), Dulbecco's Phosphate Buffered Saline (HiMedia Catlog No.: TL1006), Trypan Blue (TC193), Prostate Epithelial Media (LONZA, Catlog No.: CC-3166) MEGM (LONZA, Catlog No.: CC-3051), Heparin (Sigma, Catlog No.: H3393), Penstrep (HiMedia, Catlog No.: A002)
(§5) Prostosphere Media Preparation (For 100 mL): 1 g methyl cellulose autoclaved with magnetic stirrer, 100 mL plain media (Prostate Epithelial Basal Medium) was added and dissolved, under magnetic stirring. After complete dissolution, Insulin—40 μL, B27—2 mL, EGF—80 μL, Penstrep—1 ml was added.
(§6) Procedure—The cells were trypsinised and made into single-cell suspension by passing through cell strainers (100 μl and 40 μl, respectively), The cells were diluted at a concentration of 2000 cells/100 μL and suspended in either Mammosphere (for breast cell lines) or Prostosphere (for prostate cell lines). 100 μL of this suspension was added into each well of 96-well suspension plates and incubated at 37 C, 50 CO2 for 24 hrs. Appropriate concentrations of the drugs (2 L) were added into respective wells with 100 μL of stem cell culture medium. Plates were incubated at 37° C., 50% CO2 for 72 hrs. After incubation, 2.5 μL of the respective drug concentration and 50 μL of stem cell culture medium were added into each well and the plates were further incubated at 37° C., 500 CO2 for 72 hrs. 3 μL of the respective drug concentration was added with 50 μL of stem cell culture medium again after incubation and plates were reincubated for 72 hrs at 37° C., 500 CO2. Number of primary spheres formed for each concentration were counted. The spheres were converted to 0 viability of spheres compared to untreated (Growth Control with DMSO, GCD).

[3] = test system: MDAMB231 breast cancer cell line; assay: Soft agar colony-formation assay, MDAMB231; assay type: cell-based; conditions: Homo sapiens, MDA-MB-231, 168 h, 1 week, Alamar Blue, read-out: IC50 in micromolar, MDAMB231 (Soft Agar Assay)
Method in brief: (§2)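 Cells were embedded with drug in a top soft-agar layer over an agar base in 96-well format. Colonies grew for 1 week at 37 °C, 5% CO2, with medium feeding at day 3. Alamar Blue was added for 24 h, absorbance read at 630 nm, and log percent viability plotted against log drug concentration.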

[4] = test system: PC3 prostate cancer cell line; assay: In vitro antiproliferative assay (MTT assay), PC3; assay type: cell-based; conditions: 48 h, 48 hrs drug incubation, read-out: IC50 in micromolar, PC3 (MTT assay)
Method in brief: as §1

[5] = test system: DU145 prostate cancer cell line; assay: In vitro antiproliferative assay (MTT assay), DU145; assay type: cell-based; conditions: Homo sapiens, DU-145, 48 h, 48 hrs drug incubation, read-out: IC50 in micromolar, DU145 (MTT assay)
Method in brief: as §1

[6] = test system: PC3 spheres (cancer stem cells); assay: In vitro sphere-forming assay (cancer stem cells), PC3 in Prostosphere media; conditions: for 3D sphere count of PC3 in Prostosphere media: 2000 cells/well, n = 6 ± S.D
Source text: as §3, §4, §5, §6

[7] = test system: PC3 prostate cancer cell line; assay: Soft agar colony-formation assay, PC3; assay type: cell-based; conditions: 168 h, 1 week, Alamar Blue, read-out: IC50 in micromolar, PC3 (Soft Agar Assay)
Method in brief: as §2

[8] = test system: MDAMB231 spheres (cancer stem cells); assay: In vitro sphere-forming assay (cancer stem cells), MDAMB231 in Mammosphere media; conditions: for 3D sphere count of MDAMB231 in Mammosphere media: 2000 cells/well, n = 6 ± S.D
Procedure: as §3
Mammosphere Media Preparation (For 100 mL): 1 g methyl cellulose autoclaved with magnetic stirrer, 100 ml plain media (MEBM) was added and dissolved under magnetic stirring. After complete dissolution FGF—80 μL, EGF—40 μL, Penstrep—1 mL, Heparin—400 μL was added.
as §6

[9] = Homo sapiens, MDA-MB-231, read-out: % Viability of spheres (MDAMB231)

COc1cc2c(OCCCCN3CCOCC3)c3c(c(-c4ccc5c(c4)OCO5)c2cc1OC)C(=O)OC3.Cl [Formula VII, 4-(4-morpholinobutoxy)-9-(benzo[d][1,3]dioxol-5-yl)-6,7-dimethoxynaphtho[2,3-c]furan-1(3H)-one Hydrochloride]
pIC50 [1]: 5.49 | % Viability of spheres (PC3) ([2]; 0.025 µM): 59(±3) % | % Viability of spheres (PC3) ([2]; 0.25 µM): 50(±2) % | % Viability of spheres (PC3) ([2]; 2.5 µM): 44(±2) % | % Viability of spheres (PC3) ([2]; 25 µM): 34(±3) % | pIC50 [3]: 5.69 | pIC50 [4]: 5.56 | pIC50 [5]: 5.63 | 3D sphere count of PC3 in Prostosphere media ([6]; 0.0025 uM): 56(±3) | 3D sphere count of PC3 in Prostosphere media ([6]; 0.025 uM): 46(±3) | 3D sphere count of PC3 in Prostosphere media ([6]; 0.25 uM): 41(±3) | 3D sphere count of PC3 in Prostosphere media ([6]; 2.5 uM): 37(±2) | 3D sphere count of PC3 in Prostosphere media ([6]; 25 uM): 32(±3) | viability at 0.0025 µM ([6]; read-out: % Viability of spheres (PC3), 0.0025 uM, GCD = 100% viability): 69% | pIC50 [7]: 5.57 | 3D sphere count of MDAMB231 in Mammosphere media ([8]; 0.0025 uM): 58(±3) | 3D sphere count of MDAMB231 in Mammosphere media ([8]; 0.025 uM): 47(±3) | 3D sphere count of MDAMB231 in Mammosphere media ([8]; 0.25 uM): 36(±3) | 3D sphere count of MDAMB231 in Mammosphere media ([8]; 2.5 uM): 29(±3) | 3D sphere count of MDAMB231 in Mammosphere media ([8]; 25 uM): 21(±2) | viability at 0.0025 µM [8, 9]: 81% | viability at 0.025 µM [8, 9]: 66% | viability at 0.25 µM [8, 9]: 50% | viability at 2.5 µM [8, 9]: 41% | viability at 25 µM [8, 9]: 29%
